Experimental data reported in PMC3432134, “Effect of Ambient Temperature on the Thermoregulatory and Locomotor Stimulant Effects of 4-Methylmethcathinone in Wistar and Sprague-Dawley Rats” (PLoS ONE, 2012).
Values joined by “and” are separate entries in the source; they are usually repeats but may differ in a detail not shown here. Identical values can stand only once.

Assays:
[1] = test system: Wistar and Sprague-Dawley rats; experiment: Body temperature by implanted radiotelemetry after s.c. drug challenge
[2] = test system: Wistar and Sprague-Dawley rats; experiment: Locomotor activity (activity counts) by implanted radiotelemetry after s.c. drug challenge
[3] = Pharmacokinetic study, plasma levels by LC/MS/MS after s.c. dosing; assay type: in vivo, rat; settings: for AUC(0-inf) / Tmax / Cmax: rat, plasma, sc, 5.6 mg/kg s.c.
Description: Surgical placement of jugular vein catheters was conducted at the vendor prior to delivery at the laboratory. Blood samples were collected via the jugular catheters at timepoints 5, 15, 30, 60, 120 min and 3, 6 and 24 hrs after dosing. Plasma was stored at −80°C until analysis for drug concentrations via LC/MS/MS. Sample analysis was by LC/MS/MS with data analysis via the non compartmental analysis model of PK Solutions (Summit Research Services; Montrose, CO). The summary data for the Sprague-Dawley group have been previously described.

[4] = test system: extra-cellular dopamine in the nucleus accumbens shell; experiment: In vivo microdialysis, nucleus accumbens shell, dopamine; set-up: species or system rat; settings: 5 male Wistar rats, 10 mg/kg s.c.
Description: (§1) For microdialysis studies, drug naïve rats were implanted with a microdialysis guide cannula and probe using previously published procedures. A guide cannula (SciPro, Sanborn, NY) was implanted aimed at the NAc shell (AP = +1.6 mm, bregma; ML = ±2.0 mm, bregma; DV = –5.0 mm, dura), and rats were allowed one week for recovery. On the evening prior to the experiment, a 2 mm microdialysis probe was inserted into the guide cannula and perfused overnight with artificial CSF (0.1 µl/min) composed of the following (in mM): 149 NaCl, 2.8 KCl, 1.2 CaCl2, 1.2 MgCl2, 0.25 ascorbic acid, 5.4 D-glucose. The following morning, the perfusion rate was raised to 0.6 µl/min and samples were collected in 15 min fractions following 1 hr of equilibration.

[5] = test system: extra-cellular serotonin in the nucleus accumbens shell; experiment: In vivo microdialysis, nucleus accumbens shell, serotonin; set-up: species or system rat; settings: 5 male Wistar rats, 10 mg/kg s.c.
Description: as §1

[6] = test system: 5-HT2 receptor subtypes versus D2 receptors; set-up: method as in PMID 21824752; settings: in vitro; greater affinity for 5-HT2; cited from earlier work
extracellular dopamine = test system: extracellular dopamine; set-up: method as in PMID 21615721, PMID 22169943; settings: cited from earlier work
Sprague-Dawley rats = test system: Sprague-Dawley rats; set-up: method as in PMID 21810934; settings: four sequential doses of 1.0 or 3.0 mg/kg s.c. two hours apart, and i.v. self-administration (mean 1.77–6.78 mg/kg), ambient ≥27°C; cited from earlier work
experienced-user sample = settings: one experienced-user sample; cited from earlier work
[7] = Sprague-Dawley rats, 23°C ambient, first hour after 3.2 mg/kg 4-MMC and 5.6 mg/kg METH, vs pretreatment and vehicle
[8] = Wistar rats, 23°C ambient, first hour after 3.2 mg/kg 4-MMC or 5.6 mg/kg METH, second hour after 10.0 mg/kg 4-MMC, third hour after 5.6 mg/kg METH
[9] = both strains, 23°C ambient, first hour after 10.0 mg/kg 4-MMC or 1.0 mg/kg METH s.c., greater in Sprague-Dawley
[10] = Wistar Han, male Wistar rats (N = 3)
[11] = male Sprague Dawley rats (N = 3), summary data previously described [32]
[12] = subcutaneous dosing, rats (strain not given)
[13] = Wistar and Sprague-Dawley rats, s.c.

With `CN[C@@H](C)Cc1ccccc1` [METH, d-methamphetamine] as the compound, how does the “body temperature (hourly average)” value ([1]; Sprague-Dawley rats, 23°C ambient, first hour after 1.0 mg/kg and first two hours after 5.6 mg/kg s.c., vs baseline and vehicle) read?
The value was “significantly increased”.

What about the “locomotor activity (hourly summed counts)” value (“locomotor activity” below) [2, 7] of the same compound?
The value was “reliably higher”.

And the “locomotor activity” value [2, 8]?
The value was “higher than the vehicle condition”.

And the “locomotor activity” value [2, 9]?
Its value is “increased over pretreatment levels and vehicle”.

What about the “locomotor activity” value ([2]; both strains, 23°C ambient, second hour after 5.6 mg/kg s.c.) of the same compound?
The value was “suppressed”.

With `CCCN(CCC)C1CCc2cccc(O)c2C1` (stereo not drawn) [8-OH-DPAT] as the compound, how does the mean temperature nadir ([1]; Sprague-Dawley rats, 0.3 mg/kg s.c., 23°C ambient) read?
Its mean temperature nadir is 35.62 (±0.177) °C.

And the “body temperature (hourly average)” value ([1]; Sprague-Dawley rats, 0.05, 0.1, 0.3 mg/kg, first hour (second hour also for 0.3 mg/kg), vs vehicle and baseline)?
Its value is “lowered body temperature”.

What about the mean temperature nadir ([1]; Wistar rats, 0.3 mg/kg s.c., 23°C ambient) of the same compound?
The mean temperature nadir was 35.18 (±0.178) °C.

And the “body temperature (hourly average)” value ([1]; Wistar rats, two hours after dosing with all three doses (0.05, 0.1, 0.3 mg/kg), vs vehicle and baseline)?
Its value is “hypothermia”.

And the body temperature ([1]; each strain of rats, 23°C ambient, s.c.)?
Its body temperature is “significantly reduced”.

For `CNC(C)C(=O)c1ccc(C)cc1` (stereo not drawn) [4-MMC, 4-methylmethcathinone], which AUC(0-inf) [3, 10] is on record?
Its AUC(0-inf) is 870 ng·h/mL.

What about the Tmax [3, 10] of the same compound?
The Tmax was 15 min.

What about the Cmax [3, 10] of the same compound?
Its Cmax is 868 ng/mL and 4.9 µM.

What about the AUC(0-inf) [3, 11] of the same compound?
Its AUC(0-inf) is 1170 ng·h/mL.

What about the Tmax [3, 11] of the same compound?
The Tmax was 15 min.

What about the Cmax [3, 11] of the same compound?
Its Cmax is 1210 ng/mL and 6.81 µM.

And the elimination from plasma [3, 12]?
The elimination from plasma was “mostly eliminated within two hours”.

And the “time at which maximum plasma levels were observed” value [3, 12]?
Its value is no more than 15 min.

And the “relative increase of extra-cellular DA over baseline” value [4]?
The value was roughly 9 fold.

And the “duration of significant increase of DA over the pre-treatment average” value ([4]; Dunnett post-hoc)?
Its value is 2 h.

What about the “relative increase of extra-cellular 5-HT over baseline” value [5] of the same compound?
Its value is roughly 22 fold.

What about the “duration of significant increase of 5-HT over the pre-treatment average” value ([5]; Dunnett post-hoc) of the same compound?
Its value is 1.5 h.

What about the “affinity for 5-HT2 receptor subtypes relative to D2 receptors” value [6] of the same compound?
The value was 15 fold.

And the “increase of extracellular dopamine, less than METH” value (extracellular dopamine)?
Its value is “about 6 fold”.

And the rectal temperature (Sprague-Dawley rats)?
Its rectal temperature is “elevates”.

What about the “users reporting cold extremities” value (experienced-user sample) of the same compound?
The value was “About 15%”.

And the “users reporting excessive perspiration” value (experienced-user sample)?
The value was 67%.

And the “body temperature (hourly average)” value ([1]; Sprague-Dawley rats, 23°C ambient, only following 3.2 mg/kg (2, 3 hrs) and 5.6 mg/kg (3 hrs))?
The value was “lower than both the pretreatment baseline and the comparable timepoint after vehicle injection”.

What about the “body temperature (hourly average)” value ([1]; Sprague-Dawley rats, 23°C ambient, second hour after 10.0 mg/kg) of the same compound?
Its value is “increased relative to vehicle”.

What about the “body temperature (hourly average)” value ([1]; Sprague-Dawley rats, 27°C ambient, first hour after administration) of the same compound?
The value was “unchanged”.

And the “body temperature (hourly average)” value ([1]; Sprague-Dawley rats, 27°C ambient, third hour after 1.0 mg/kg, vs baseline and vehicle)?
The value was “reliable decrease”.

What about the mean temperature nadir ([1]; Wistar rats, 10 mg/kg s.c., 23°C ambient, (±SEM)) of the same compound?
Its mean temperature nadir is 36.74 (±0.187) °C.

And the mean temperature nadir ([1]; Wistar rats, 10 mg/kg s.c., 27°C ambient, (±SEM))?
The mean temperature nadir was 37.35 (±0.115) °C.

And the “body temperature (hourly average)” value ([1]; Wistar rats, 23°C ambient, first hour after 3.2, 5.6 and 10 mg/kg s.c., vs baseline, saline and Sprague-Dawley)?
The value was “significantly lowered”.

And the “body temperature (hourly average)” value ([1]; Wistar rats, 27°C ambient, first hour after 5.6 or 10.0 mg/kg s.c., vs baseline, saline and Sprague-Dawley)?
The value was “decreased”.

And the “duration of temperature and activity effects” value ([1]; s.c. dosing, rats, applies to temperature and activity)?
The value was “about 90 minutes”.

And the “locomotor activity” value [2, 7]?
The value was “reliably higher”.

And the “locomotor activity” value ([2]; Sprague-Dawley rats, 27°C ambient, first hour after 5.6 or 10.0 mg/kg, vs pre-injection, vehicle and Wistar)?
The value was “higher”.

And the “efficacy in stimulating locomotion relative to d-methamphetamine (METH)” value [2, 13]?
Its value is “equally efficacious”.

And the “potency in stimulating locomotion relative to METH” value [2, 13]?
Its value is “about tenfold less potent”.

What about the “locomotor activity” value [2, 8] of the same compound?
Its value is “higher than the vehicle condition”.

And the “locomotor activity” value ([2]; Wistar rats, 27°C ambient, after 3.2, 5.6 and 10.0 mg/kg, vs hour before injection and vehicle)?
Its value is “higher”.

And the “locomotor activity” value [2, 9]?
The value was “increased over pretreatment levels and vehicle”.

What about the “locomotor activity” value ([2]; each strain, 23°C ambient, first hour after 5.6 or 10.0 mg/kg s.c., vs pre-injection hour and saline) of the same compound?
The value was “significantly elevated”.

And the “locomotor activity” value ([2]; each strain, 23°C ambient, second hour after 10.0 mg/kg, vs vehicle, effect greater in Sprague-Dawley)?
The value was “significant increase”.
